Measured values taken from ChEMBL document CHEMBL1201862, “PubChem BioAssay data set” (2004).
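Briefly, cells in 96-well plates were exposed to five compound concentrations for 48 h, and endpoints were estimated by linear interpolation. Here, GI50 denotes the concentration required for 50% inhibition of growth.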 Activity calls are given as the source filed them. Cut-off read from the data, not from the text of the source: active = GI50 up to about 1.1 µM and inactive = higher.

What was measured:
Assay in all cases: inhibition of tumour cell growth, NCI panel, 48 h
MDA-MB-231 = test system: MDA-MB-231
KM12 = test system: KM12
DU-145 = test system: DU-145
MOLT-4 = test system: MOLT-4
M14 = test system: M14
HCT-15 = test system: HCT-15
SF-539 = test system: SF-539
SW-620 = test system: SW-620
OVCAR-5 = test system: OVCAR-5
SR = test system: SR
NCI-H23 = test system: NCI-H23
HL-60 = test system: HL-60
SF-268 = test system: SF-268
OVCAR-4 = test system: OVCAR-4
RXF 393 = test system: RXF 393
UACC-257 = test system: UACC-257
NCI-H522 = test system: NCI-H522
OVCAR-3 = test system: OVCAR-3
SK-MEL-5 = test system: SK-MEL-5
U-251 = test system: U-251

Measured: GI50

CCNC1=C(NC(=O)c2ccc(F)cc2)C(=O)c2ccccc2C1=O
30.5 µM: HCT-15
inactive: MDA-MB-231 44.8 µM | KM12 49.9 µM | DU-145 > 100 µM | MOLT-4 30.1 µM | M14 24.5 µM | SF-539 72.1 µM | SW-620 32.2 µM | OVCAR-5 > 100 µM | SR 48.4 µM | NCI-H23 34.6 µM | HL-60 40.3 µM | SF-268 > 100 µM | OVCAR-4 40.1 µM | RXF 393 29.4 µM | UACC-257 15.8 µM | NCI-H522 21 µM | OVCAR-3 36.6 µM | SK-MEL-5 35 µM

COc1cccc(N2C(=O)C3c4[nH]c5ccc(C)cc5c4C4CCC(C(C)(C)C)CC4C3C2=O)c1 (configuration not stated)
inactive: MDA-MB-231 5.48 µM | KM12 3.52 µM | DU-145 > 10 µM | MOLT-4 1.97 µM | M14 8 µM | SF-539 2.86 µM | SW-620 3.88 µM | OVCAR-5 3.3 µM | SR 2 µM | NCI-H23 2.24 µM | HL-60 1.95 µM | SF-268 4.73 µM | OVCAR-4 6.27 µM | U-251 3.52 µM | RXF 393 3.8 µM | NCI-H522 1.87 µM | OVCAR-3 5.46 µM | SK-MEL-5 7.67 µM
6.35 µM: HCT-15

Cc1ccc(NC(=O)CSc2nc(C)nc3c2sc(=S)n3-c2ccccc2)cc1
inactive: MDA-MB-231 6.3 µM | KM12 > 10 µM | DU-145 > 10 µM | MOLT-4 > 10 µM | M14 2.79 µM | SF-539 3.01 µM | SW-620 > 10 µM | OVCAR-5 > 10 µM | SR 9.89 µM | NCI-H23 > 10 µM | HL-60 > 10 µM | SF-268 6.14 µM | OVCAR-4 2.2 µM | U-251 3.84 µM | RXF 393 1.79 µM | UACC-257 > 10 µM | NCI-H522 > 10 µM | OVCAR-3 5.37 µM | SK-MEL-5 > 10 µM
> 10 µM: HCT-15

O=C1C(Cl)C(c2cccc(Cl)c2)N1c1ccc(-n2c(S)nc3ccccc3c2=O)cc1 (configuration not stated)
inactive: MDA-MB-231 20 µM | KM12 28.4 µM | DU-145 35.2 µM | MOLT-4 14 µM | M14 19.5 µM | SF-539 20 µM | SW-620 29.6 µM | OVCAR-5 24.9 µM | SR 10.7 µM | NCI-H23 19.6 µM | HL-60 22.1 µM | SF-268 12.6 µM | OVCAR-4 13.6 µM | U-251 13.3 µM | RXF 393 4.08 µM | UACC-257 26.9 µM | NCI-H522 15.1 µM | OVCAR-3 30.5 µM | SK-MEL-5 15.1 µM
1.02 µM: HCT-15

Cc1ccc2c(c1)c1ccc3c(c1n2C)C(=O)C=CC3=O
1.75 µM: HCT-15
active: MOLT-4 0.76 µM | SW-620 0.543 µM | SR 0.27 µM | HL-60 0.75 µM
inactive: MDA-MB-231 2.36 µM | KM12 6.84 µM | DU-145 7.33 µM | M14 2.05 µM | SF-539 2.32 µM | OVCAR-5 > 10 µM | NCI-H23 2.62 µM | SF-268 3.43 µM | OVCAR-4 2.32 µM | U-251 > 7.31 µM | RXF 393 1.97 µM | UACC-257 2.51 µM | NCI-H522 1.23 µM | OVCAR-3 1.95 µM | SK-MEL-5 4.56 µM

C[C@@]1(O)C2C3CC4C5C3C1[C@](O)(C42)[C@H]5Br (some centres not stated)
inactive: MDA-MB-231 > 100 µM | KM12 > 100 µM | DU-145 > 100 µM | MOLT-4 > 100 µM | M14 > 100 µM | SF-539 > 100 µM | SW-620 > 100 µM | OVCAR-5 > 100 µM | SR > 100 µM | NCI-H23 > 100 µM | HL-60 > 100 µM | SF-268 > 100 µM | OVCAR-4 > 100 µM | U-251 > 100 µM | RXF 393 > 100 µM | UACC-257 > 100 µM | NCI-H522 > 100 µM | OVCAR-3 > 100 µM | SK-MEL-5 > 100 µM
> 100 µM: HCT-15

O=C1N/C(=N/N=C\c2ccccc2)N/C1=C/c1ccccc1
32.9 µM: HCT-15
inactive: MDA-MB-231 47 µM | KM12 22.5 µM | DU-145 22.3 µM | MOLT-4 14.4 µM | M14 45.4 µM | SF-539 20.5 µM | SW-620 38.5 µM | OVCAR-5 21.6 µM | SR 16.1 µM | NCI-H23 21.7 µM | HL-60 34 µM | SF-268 27.3 µM | OVCAR-4 15.2 µM | U-251 33.7 µM | RXF 393 30 µM | UACC-257 53.6 µM | NCI-H522 23.1 µM | OVCAR-3 32.2 µM | SK-MEL-5 35.4 µM

COc1cc(S(=O)(=O)Nc2ccc(-c3csc(N)n3)cc2)ccc1Cl
inactive: MDA-MB-231 16.9 µM | DU-145 18 µM | MOLT-4 11.1 µM | M14 18.6 µM | SF-539 47.6 µM | SW-620 24.3 µM | OVCAR-5 23.3 µM | SR 21.9 µM | NCI-H23 21.2 µM | HL-60 15 µM | SF-268 34.4 µM | OVCAR-4 14.1 µM | RXF 393 12.2 µM | NCI-H522 17.9 µM | OVCAR-3 14.9 µM | SK-MEL-5 16.6 µM
20.1 µM: HCT-15

C/C(CC(O)(C(F)(F)Cl)C(F)(F)Cl)=N\Nc1ccccc1
inactive: MDA-MB-231 47.6 µM | KM12 29.1 µM | DU-145 49 µM | MOLT-4 23.4 µM | M14 29.4 µM | SF-539 32.3 µM | SW-620 31 µM | OVCAR-5 > 100 µM | SR 39.1 µM | NCI-H23 19.3 µM | HL-60 22.5 µM | OVCAR-4 63.7 µM | U-251 28.2 µM | RXF 393 19.2 µM | UACC-257 44.7 µM | NCI-H522 28.5 µM | OVCAR-3 19.1 µM | SK-MEL-5 19.1 µM
32.1 µM: HCT-15

Clc1nss/c1=N/c1nonc1-c1ccccc1
inactive: MDA-MB-231 14 µM | KM12 31 µM | DU-145 22.7 µM | MOLT-4 25.1 µM | M14 16 µM | SF-539 22.7 µM | SW-620 41.6 µM | OVCAR-5 19.5 µM | SR 18.4 µM | NCI-H23 26.1 µM | HL-60 3.62 µM | OVCAR-4 49.9 µM | U-251 41.1 µM | RXF 393 29.2 µM | UACC-257 33 µM | NCI-H522 18.3 µM | OVCAR-3 39 µM | SK-MEL-5 20.3 µM
> 100 µM: HCT-15

COC1CC(N)(c2ccccc2)C(O)C(C)O1 (configuration not stated)
inactive: MDA-MB-231 > 100 µM | DU-145 > 100 µM | MOLT-4 > 100 µM | M14 > 100 µM | SF-539 > 100 µM | SW-620 > 100 µM | OVCAR-5 > 100 µM | SR > 100 µM | NCI-H23 > 100 µM | HL-60 > 100 µM | SF-268 > 100 µM | OVCAR-4 > 100 µM | U-251 > 100 µM | RXF 393 > 100 µM | UACC-257 > 100 µM | NCI-H522 > 100 µM | OVCAR-3 > 100 µM | SK-MEL-5 > 100 µM
> 100 µM: HCT-15
